As a reminder, the EC50 is the concentration needed to bring the measured effect to its halfway point.

Activity calls are given as the source filed them. The rule behind the calls is not given here.

For one experiment, the system named is GripTite 293 MSR. Kind of experiment: Induction of IKZF2 degradation in human GripTite 293 MSR cells at 10 uM assessed as reduction in IKZF2 level measured by PathHunter assay relative to control. Format: cell-based. The arrangement: scale not given: the % may be the effect or the level left.
The test system of experiment [1] is PBMC. Nature of the experiment: Effect of compound on human PBMCs at 10 uM assessed as decrease in CD4+ T cells proliferation. Format: functional, cell-based.
Experiment [2] deals with PBMC. Kind of experiment: Effect of compound on human PBMCs at 10 uM assessed as fold increase in IL-2 producing cells. Format: functional, cell-based.
Experiment [3] can be described thus: Induction of IKZF2 degradation in human GripTite 293 MSR cells assessed as reduction in IKZF2 level measured by PathHunter assay. In kind it is cell-based.

`CN1CC=C(c2ccc3c(c2)CN(C2CCC(=O)NC2=O)C3=O)CC1` (stereo not given): the Activity in the experiment on GripTite 293 MSR was 35%. On to `O=C1CCC(N2Cc3cc(C4CCN(Cc5ccccc5)CC4)ccc3C2=O)C(=O)N1` (stereo not given), for which the outcome in the experiment with PBMC [1] and in the experiment on PBMC [2] was Active.

Consider `CC(c1ccccc1)N1CCC(c2ccc3c(c2)CN(C2CCC(=O)NC2=O)C3=O)CC1` (racemic), for which the EC50 in experiment [3] is 7 nM. Still for that read-out and setting: as for `O=C1CCC(N2Cc3cc(C4CCN([C@@H](CO)c5ccccc5)CC4)ccc3C2=O)C(=O)N1` (single isomer, unassigned), the figure is 590 nM. For the compound `C[C@H](c1ccccc1)N1CCC(c2ccc3c(c2)CN(C2CCC(=O)NC2=O)C3=O)CC1` (single isomer, unassigned), in experiment [3], the EC50 came out at 17 nM. Still for that read-out and setting: then `CC(c1ccccc1)N1CCC(c2ccc3c(c2)CN(C2CCC(=O)NC2=O)C3=O)CC1` (single isomer, unassigned), with 9 nM; and `O=C1CCC(N2Cc3cc(C4CCN(C(CO)c5ccccc5)CC4)ccc3C2=O)C(=O)N1` (single isomer, unassigned), with 850 nM; and `O=C1CCC(N2Cc3cc(C4CCCN(Cc5ccccc5)CC4)ccc3C2=O)C(=O)N1` (single isomer, unassigned; form 1), with 170 nM. For the compound `O=C1CCC(N2Cc3cc(C4CCCN(Cc5ccccc5)CC4)ccc3C2=O)C(=O)N1` (single isomer, unassigned; form 2), in experiment [3], the EC50 stood at 210 nM.

The values above are taken from ChEMBL document CHEMBL5050840, “3-(1-oxoisoindolin-2-yl)piperidine-2,6-dione derivatives and uses thereof” (2021).
